Common to all, as to assay type: cell-based
In assay [1] the test system is PDK1. Briefly: Immunoblot of PDK1 (total and phosphorylated) in MM.1 S cells. The following applies: 10 μM, 0-6 hours. The protocol:
(§1) 5×10^6 were cells treated with 10 μM 8-NH2-Ado for the indicated times and harvested. Cell pellets were washed with cold phosphate-buffered saline (PBS; 8.1 g NaCl, 1.14 g Na2HPO4, 0.22 g KCl, and 0.25 g/L KH2PO4) and incubated with lysis buffer (50 mM HEPES, 150 mM NaCl, 1.5 mM MgCl2, 1 mM EDTA pH 8.0, 100 mM NaFI, 10 mM Na Pyrophosphate, 500 μM PMSF, 0.5% Triton X-100, 10% glycerol) at 4° C. for one hour. Lysates were centrifuged at 4° C. for 1 minute at 9000×g, and the supernatants were collected and stored at −20° C. Protein concentration was determined by Bio-Rad protein assay (BioRad Laboratories, Hercules, Calif.). Protein, at a concentration of 30 μg, was mixed with sample buffer (125 mM Tris, pH 6.8, 4% SDS, 20% glycerol, 100 mM Dithiothreitol (DTT), and 0.05% bromophenol blue), and fractionated on a pre-cast 8-16% Tris-Glycine gel (Invitrogen/Novex, Carlsbad, Calif.). Proteins were then transferred to a Polyvinylidene Fluoride (PVDF) membrane (Immobilon-P, Millipore, Bedford, Mass.): Following protein transfer, membranes were blocked with 5% non-fat milk in PBS-T (PBS with 0.1% Tween), incubated with the primary antibody overnight at 4° C. and subsequently with horseradish peroxidase linked secondary antibody (Amersham, Arlington Heights, Ill.). […]

Assay [2] concerns MEK1/2. Put plainly: Immunoblot of phospho-MEK1/2 in MM.1 S cells. The following applies: 10 μM, 0-6 hours. The protocol:
as §1

The test system of assay [3] is caspase 8. Briefly: Caspase 8 activation immunoblot in MM.1 S cells. The following applies: 10 μM. The procedure: as §1, with “Calif.).” for “Calif.). Proteins were then transferred to a Polyvinylidene Fluoride (PVDF) membrane (Immobilon-P, Millipore, Bedford, Mass.): Following protein transfer, membranes were blocked with 5% non-fat milk in PBS-T (PBS with 0.1% Tween), incubated with the primary antibody overnight at 4° C. and subsequently with horseradish peroxidase linked secondary antibody (Amersham, Arlington Heights, Ill.).”
(§2) MM.1 S cells were exposed to 10 μM 8-NH2-Ado for 0, 0.5, 1, 2, 4 or 6 hours, after which cells were lysed as previously described. […] Total protein levels were also assessed to ensure equal loading and transfer (data not shown). […]

The test system of assay [4] is p90RSK. Put plainly: Immunoblot of phospho-p90RSK in MM.1 S cells. Conditions: 10 μM, 0-6 hours. The procedure: as §1
For assay [5], the system named is MM.1 S cells. Briefly: Cell cycle analysis by flow cytometry (subG1 fraction). The following applies: 10 μM, up to 4 hours. The procedure:
MM1 S cells were incubated with 10 μM 8-NH2-adenosine 0.5, 1, 2, 4 or 24 hours. To determine the distribution of cells within the cell cycle, I×10^6 MM. I S cells were pelleted (500×g for 5 minutes at 4° C.), and washed twice in ice-cold PBS, fixed in ice-cold 70% ethanol, and stored at 4° C. until analyzed. Before analysis by flow cytometry, the fixed cells were pelleted, washed in PBS, and resuspended in ice-cold flow buffer (PBS containing 0.5% Tween 20, 15 μg/mL propidium iodide, and 5 μg/mL DNase-free RNase). The stained cells were analyzed using an Epics Profile II flow cytometer (Coulter Electronics, Inc., Hialeah, Fla.). FIG. 2 provides the results of this experiment. To ascertain whether the changes in phosphorylation levels of these key signaling molecules is a direct result of cell death, parallel cultures were assessed for cellular viability by cell cycle analysis. Cells undergoing apoptosis have a reduced DNA content caused by cleavage and loss of small DNA fragments. Therefore, apoptotic cells are identified as those cells in the subG1 fraction of the cell cycle.

The test system of assay [6] is ERK1/2. Put plainly: Immunoblot of phospho-ERK1/2 in MM.1 S cells. Conditions: 10 μM. The procedure: 5×10^6 were cells treated with 10 μM 8-NH2-Ado for the indicated times and harvested. Cell pellets were washed with cold phosphate-buffered saline (PBS; 8.1 g NaCl, 1.14 g Na2HPO4, 0.22 g KCl, and 0.25 g/L KH2PO4) and incubated with lysis buffer (50 mM HEPES, 150 mM NaCl, 1.5 mM MgCl2, 1 mM EDTA pH 8.0, 100 mM NaFI, 10 mM Na Pyrophosphate, 500 μM PMSF, 0.5% Triton X-100, 10% glycerol) at 4° C. for one hour. Lysates were centrifuged at 4° C. for 1 minute at 9000×g, and the supernatants were collected and stored at −20° C. Protein concentration was determined by Bio-Rad protein assay (BioRad Laboratories, Hercules, Calif.). Protein, at a concentration of 30 μg, was mixed with sample buffer (125 mM Tris, pH 6.8, 4% SDS, 20% glycerol, 100 mM Dithiothreitol (DTT), and 0.05% bromophenol blue), and fractionated on a pre-cast 8-16% Tris-Glycine gel (Invitrogen/Novex, Carlsbad, Calif.). Proteins were then transferred to a Polyvinylidene Fluoride (PVDF) membrane (Immobilon-P, Millipore, Bedford, Mass.): Following protein transfer, membranes were blocked with 5% non-fat milk in PBS-T (PBS with 0.1% Tween), incubated with the primary antibody overnight at 4° C. and subsequently with horseradish peroxidase linked secondary antibody (Amersham, Arlington Heights, Ill.). Blots were developed using ECL Plus Chemiluminescent Western Blotting Detection reagent (Amersham, Arlington Heights, Ill.) and the signal was visualized with X-ray film (Hyperfilm, Amersham, Arlington Heights, Ill.). For reprobing purposes, blots were stripped using Restore Western Blot Stripping Buffer from Pierce Biotechnology (Rockford, Ill.). Phospho-MKK3/6 (Ser189/207), phospho-p38 (Thr180/Tyr182), phospho-ATF-2 (Thr69/71), phospho-c-Raf (Ser259), phospho-MEK1/2 (Ser217/221), total MEK1/2, phospho-ERK1/2 (Thr202/Tyr204), total ERK1/2, phospho-p90RSK (Ser380), total RSK, phospho-PDK1 (Ser241), total PDKI, phospho-PTEN (Ser380), total PTEN, phospho-Akt (Ser473), total Akt, phospho-GSK-3β (Ser9), total GSK-3β, phospho-FKHRLI (Thr32)/-FKHR (Thr24), phospho-FKHR (Ser256) primary antibodies were obtained from Cell Signaling Technology (Beverly, Mass.). Total MKK3, total MKK6, total p38, total ATF-2, total c-Raf, total FKHR, total FKHRLI, phospho-JNK and total JNK were purchased from Santa Cruz Biotechnology (Santa Cruz, Calif.). Caspase 3, caspase 9, and PARP antibodies were obtained from Pharmingen (San Diego, Calif.) and anti-MKP1 from Upstate (Lake Placid, N.Y.). Anti-caspase 8 mouse serum was a generous gift of Dr. Marcus Peter (University of Chicago).
MM.1 S cells were exposed to 10 μM 8-NH2-Ado for 0, 0.5, 1, 2, 4 and 6 hours, after which cells were lysed as previously (Example 2). 30 μg of protein was separated by gel electrophoresis, transferred to PVDF membrane, and probed with phosphorylation-specific antibodies to MKK3/6, p38 MAPK, ATF-2, MEK1/2, ERK1/2, p90RSK, JNK1, PDK1, Akt, FKHRL1 and GSK-3β.
MM. I S cells were treated with 10 μM 8-chloro-adenosine for 0, 0.5, 1, 2, 4 or 6 hours or 10 μM of cytarabine, fludarabine, gemcitabine or 8-amino-adenosine for 4 hours. Cells were lysed as previously described and 30 μg of protein was separated by gel electrophoresis, transferred to PVDF membrane, and probed with phospho-p38 MAPK (Thr180/Tyr182) antibody.
MM.1 S cells were grown in dextrose-free media and treated with 2 μM Antimycin A, 5 mM 2-DOG, and varying concentrations of dextrose for 90 minutes. Cellular ATP levels were determined using triplicate samples in a luciferase based assay and are expressed here as a percentage of untreated control.

The subject of assay [7] is poly (ADP-ribose) polymerase. Briefly: PARP cleavage immunoblot in MM.1 S cells. Conditions: 10 μM. The procedure:
as §1, with “Calif.).” for “Calif.). Proteins were then transferred to a Polyvinylidene Fluoride (PVDF) membrane (Immobilon-P, Millipore, Bedford, Mass.): Following protein transfer, membranes were blocked with 5% non-fat milk in PBS-T (PBS with 0.1% Tween), incubated with the primary antibody overnight at 4° C. and subsequently with horseradish peroxidase linked secondary antibody (Amersham, Arlington Heights, Ill.).”
as §2

The structures appear in SMILES notation.

For `Nc1ncnc2c1nc(N)n2[C@@H]1O[C@H](CO)[C@@H](O)[C@H]1O` [8-NH2-Ado, 8-amino-adenosine], the “Total and phosphorylated levels of PDK1” value in assay [1] was “remain unchanged”. The “phosphorylation levels of MEK1/2” value in assay [2] is reported as “appear to increase”. The “time at which cleaved and activated caspase 8 appears” value in assay [3] is 2 to 4 h. For the same compound, in assay [4], the “phosphorylation level of p90RSK” value is given as “modestly decrease”. The “subG1 fraction versus untreated cells” value in assay [5] was “no differences”. Further, in assay [6] (4 hours, data not shown), the “phosphorylation of ERK1/2” value is reported as “dramatic loss of phosphorylation”. The figures for the “Phosphorylation of the ERK1/2 kinases” value in assay [6] (by 30 minutes) and in assay [6] (by 2 hours) were “decreases significantly” and “declines to negligible levels”, respectively. For the same compound, the “start of cleavage of poly (ADP-ribose) polymerase” value in assay [7] is no less than 2 h.

The record behind these values is patent US20090082304A1, “Methods of Treating Hematological Malignancies with Nucleoside Analog Drugs” (NORTHWESTERN UNIVERSITY, priority 2004, published 2009).
